This passage reports Ki, Tm and C50 results from ChEMBL document CHEMBL1148229, “Synthesis of a novel intercalator based on 2,2'-binaphthalene bearing dimethylammonium groups” (Bioorg Med Chem Lett, 2004).

The target in assay [1] is Nucleic Acid. Nature of the assay: Intrinsic association constant for DNA. In kind it is nucleic-acid assay, Bos taurus.
The test system of assay [2] is Nucleic Acid. Nature of the assay: Melting temperature (Tm) of DNA in the absence of the compound. In kind it is functional. Conditions: Bos taurus.
Assay [3] is described as follows: Concentration of compound required for reduction of the fluorescence of ethidium bromide. The assay is classed as functional.
Assay [4] concerns Nucleic Acid. Nature of the assay: Melting temperature (Tm) of DNA in the presence of compound (5 uM). To be noted: Bos taurus. In kind it is functional.
The target of assay [5] is Nucleic Acid. Nature of the assay: Apparent association constant for DNA. In kind it is nucleic-acid assay, Bos taurus.

SMILES strings stand for the structures.

Molecule `CC[n+]1c(-c2ccccc2)c2cc(N)ccc2c2ccc(N)cc21.[Br-]` [HOMIDIUM BROMIDE] returned a Ki on Nucleic Acid [1] of 360000 M⁻¹.
For the molecule `CN(C)Cc1cccc2ccc(-c3ccc4cccc(CN(C)C)c4c3)cc12`, the Ki on Nucleic Acid [1] is 800000 M⁻¹; on Nucleic Acid [5], 100000 M⁻¹. The Tm in the assay with Nucleic Acid [2] worked out at 75 °C; in the assay on Nucleic Acid [4], 81.2 °C. The C50 in assay [3] was 7.2 µM.
Consider `CNc1ccc2ccccc2c1`, for which the Ki at Nucleic Acid [1] was found to be 2200 M⁻¹.
